# Test results from patent publication US12139491B2, “Diketopiperazine derivatives as calcium ATPase inhibitor for enhancing anticancer activity” (HOLOSMEDIC, priority 2018, dated 2024).
# Key:
# [1] = test system: cancer stem cell-like thyroid cancer cells derived from patients with relapse and metastasis after paclitaxel administration; experiment: Paclitaxel activity enhancement in paclitaxel-resistant thyroid cancer cells (cell number, viability); assay type: cell-based, human
# Method: After cancer stem cell-like thyroid cancer cells derived from patients with relapse and metastasis after paclitaxel administration (ATC) were treated with a compound of Preparation Example 1-1 (150 nM) only; paclitaxel (12 nM) only; or a combination of paclitaxel (5 nM) and a compound of Preparation Example 1-1 (70 nM), a change in number of cells over time was confirmed. In addition, a change in cell viability according to a treatment concentration of paclitaxel, the compound of Preparation Example 1-1, or the combination of paclitaxel and the compound of Preparation Example 1-1 is shown in FIG. 1. In addition, the change in cell viability according to the treatment concentration of paclitaxel, the compound of Preparation Example 1-1 and the combination thereof was measured, and the result is shown in FIG. 2.
# [2] = Body weight of stomach cancer cell xenograft mice; conditions: 41 days, compared with negative control, stated as no toxicity problem, FIG. 7
# [3] = Body weight of colorectal cancer cell xenograft mice; assay type: in vivo, BALB/c nude female mouse; conditions: 41 days, compared with negative control, stated as no toxicity problem, FIG. 11
# Method: (§1) After cancer stem cell-like colorectal cancer cells, which were derived from patients with relapse and metastasis after radiation therapy, were cultured in vitro, the cultured cells were injected subcutaneously into the upper left flank of a BALB/c nude female mouse to be 2.0×10^7 cells/mouse. […] The mice were anesthetized to measure a change in tumor volume daily using calipers for 40 days, and the result is shown in FIG. 9. The tumor volume was calculated by the above-described Equation 1. In addition, after 40 days, a tumor weight was measured, and the result is shown in FIG. 10, and for 41 days, the body weight of the mouse was measured, and the result is shown in FIG. 11.
# [4] = test system: cancer stem cell-like colorectal cancer cells derived from patients with relapse and metastasis after radiation therapy; experiment: Radiation treatment activity enhancement in radiation-resistant colorectal cancer cells (cell number); assay type: cell-based, human; conditions: compound (75 nM) and X-rays at 5 Gy; FIG. 8
# Method: After cancer stem cell-like colorectal cancer cells derived from patients with relapse and metastasis after radiation therapy were treated with the compound of Preparation Example 1-1 (150 nM) only; Faxitron X-rays (Faxitron Bioptics, AZ, USA) at an intensity of 5 Gy (RT); or the compound of Preparation Example 1-1 (75 nM) and the X-rays at an intensity of 5 Gy, the change in number of cancer cells over treatment time was measured, and the result is shown in FIG. 8.
# [5] = test system: cancer stem cell-like colorectal cancer cells derived from patients with relapse and metastasis after radiation therapy, xenografted; experiment: Tumor volume and weight in colorectal cancer cell xenograft mouse; assay type: in vivo, BALB/c nude female mouse; conditions: oral compound (27 mg/kg) and X-rays at 5 Gy
# Method: as §1
# [6] = test system: cancer stem cell-like stomach cancer cells derived from patients with relapse and metastasis after irinotecan administration; experiment: Irinotecan activity enhancement in irinotecan-resistant stomach cancer cells (cell number); assay type: cell-based, human; conditions: FIG. 4
# Method: After cancer stem cell-like stomach cancer cells derived from patients with relapse and metastasis after irinotecan administration were treated with the compound of Preparation Example 1-1 only (170 nM); irinotecan only (8.9 μM); or a combination of irinotecan (4.5 μM) and the compound of Preparation Example 1-1 (75 nM), a change in cell number over treatment time was measured, and the result is shown in FIG. 4.
# [7] = test system: cancer stem cell-like thyroid cancer cells derived from patients with relapse and metastasis after paclitaxel administration, xenografted; experiment: Tumor volume in thyroid cancer cell xenograft mouse; assay type: in vivo, BALB/c nude female mouse; conditions: 60 days, FIG. 3
# Method: After cancer stem cell-like thyroid cancer cells derived from patients with relapse and metastasis after paclitaxel administration were cultured in vitro, the cultured cells were injected subcutaneously into the upper left flank of a BALB/c nude female mouse to be 2.0×10^7 cells/mouse. […] The mice were anesthetized to measure a change in tumor volume daily using calipers for 60 days, and the result is shown in FIG. 3. The tumor volume was evaluated using the following Equation 1. Tumor volume=L×S^2/2 [Equation 1] • (however, L is the longest diameter, and S is the shortest diameter)
# [8] = test system: cancer stem cell-like stomach cancer cells derived from patients with relapse and metastasis after irinotecan administration, xenografted; experiment: Tumor volume and weight in stomach cancer cell xenograft mouse
# [9] = test system: SKOV3-TR (paclitaxel-resistant epithelial ovarian cancer cell line); experiment: Cell morphology and viability (ImageJ living cell count) in SKOV3-TR; assay type: cell-based; conditions: paclitaxel 5 μM; morphological analysis
# Method: (§2) To confirm the anticancer therapeutic activity enhancing effects of the compounds of Preparation Examples, the compounds or salts prepared in Preparation Examples 1-1 to 31 (hereinafter, the compounds of Preparation Examples) were used, and cellular experiments were carried out with an epithelial ovarian cancer cell line SKOV3 and SKOV3-TR derived therefrom and produced as a resistant cell line having resistance to a paclitaxel anticancer agent. […]
# (§3) For the morphological analysis of the cells, 24, 48 and 72 hours after paclitaxel treatment, images of cells treated with “None (untreated sample)”, “DMSO (paclitaxel solvent)”, “ethanol (solvent for the compounds of Preparation Examples)”, “paclitaxel”, “paclitaxel+ethanol”, and “paclitaxel+the compound of Preparation Example 1-2 (L19001)” were obtained. In addition, for the analysis of cell viability, 72 hours after treatment with paclitaxel or the compound of each Preparation Example only, or co-treatment with paclitaxel and the compound of each Preparation Example, the number of living cells was measured through Image J analysis.
# (§4) The cell viability of the two types of cancer cell lines was analyzed by measuring the number of living cells using the ImageJ program.
# [10] = test system: SKOV3 (epithelial ovarian cancer cell line); experiment: Cell morphology and viability (ImageJ living cell count) in SKOV3; assay type: cell-based; conditions: paclitaxel 0.2 μM; morphological analysis
# Method: as §2, §3, §4
compound,measurement,setting,value
"CCc1oc2ccccc2c1CN1CCN2C(=O)CNC(=O)C2C1 (centres unmarked) [Preparation Example 1-1, 2-((2-ethylbenzofuran-3-yl)methyl)hexahydro-2H-pyrazino[1,2-a]pyrazine-6,9-dione]",number of stem cell-like thyroid cancer cells,"[1]; combination of paclitaxel (5 nM) and compound (70 nM), FIG. 1",remarkably decreased
same,cell viability of stem cell-like thyroid cancer cells,"[1]; combination of paclitaxel and compound, FIG. 2",remarkably decreased
same,change in body weight of the mouse,[2]; oral compound (32 mg/kg) in combination with irinotecan (55 mg/kg),no change
same,change in body weight of the mouse,[2]; oral compound (70 mg/kg) alone,no change
same,change in body weight of the mouse,[3]; oral compound (27 mg/kg) in combination with radiation therapy (5 Gy),no change
same,change in body weight of the mouse,[3]; oral compound (60 mg/kg) only,no change
same,number of cancer cells,[4],remarkably decreased
same,tumor volume,"[5]; 40 days, FIG. 9",remarkably decreased
same,tumor weight,"[5]; after 40 days, FIG. 10",remarkably decreased
same,number of cancer cells,[6]; combination of irinotecan (4.5 μM) and compound (75 nM),remarkably decreased
same,tumor volume,[7]; oral compound (27 mg/kg) then intraperitoneal paclitaxel (11 mg/kg),remarkably decreased
same,tumor volume,"[8]; oral compound (32 mg/kg) and irinotecan (55 mg/kg), 40 days, FIG. 5",remarkably decreased
same,tumor weight,"[8]; oral compound (32 mg/kg) and irinotecan (55 mg/kg), after 40 days, FIG. 6",remarkably decreased
"CCc1c2c(nc3ccc(OC(=O)N4CCC(N5CCCCC5)CC4)cc13)-c1cc3c(c(=O)n1C2)COC(=O)[C@]3(O)CC [irinotecan, reference compound]",change in number of cancer cells,"[6]; irinotecan only (8.9 μM), compared with negative control",no change
same,change in tumor weight,"[8]; oral irinotecan (75 mg/kg) only, after 40 days, compared with negative control, FIG. 6",no change
"CC(=O)O[C@H]1C(=O)[C@@]2(C)[C@H]([C@H](OC(=O)c3ccccc3)[C@]3(O)C[C@H](OC(=O)[C@H](O)[C@@H](NC(=O)c4ccccc4)c4ccccc4)C(C)=C1C3(C)C)[C@]1(OC(C)=O)CO[C@@H]1C[C@@H]2O [paclitaxel, reference compound]",change in cancer cell number,"[1]; paclitaxel (12 nM) only, compared with negative control, FIG. 1",no change
same,viability of cancer cells,"[1]; paclitaxel only, compared with negative control, FIG. 2",no change
same,number of living cells (induction of cell death and inhibition of cell growth),[9],decrease
same,number of living cells (induction of cell death and inhibition of cell growth),[10],decrease
same,change in tumor volume,"[7]; intraperitoneal paclitaxel (25 mg/kg) only, compared with negative control",no change
